# Measured values: patent publication US3987180A, “1-Propyl-imidazolyl antimycotic compositions and methods of treating mycoses” (Bayer Aktiengesellschaft, priority 1973, dated 1976)
# Experiments:
# [1] = system: Candida albicans; assay: Antimycotic activity in vitro (series dilution test), Candida albicans; format: cell-based; conditions: nutrient medium, 28° C, 24 to 96 hours, read-out: Minimum inhibitory concentration (MIC), Candida albicans
# [2] = system: Penicillium commune; assay: Antimycotic activity in vitro (series dilution test), Penicillium commune; format: cell-based; conditions: nutrient medium, 28° C, 24 to 96 hours, read-out: Minimum inhibitory concentration (MIC), Penicillium commune
# [3] = system: Trichophyton mentagrophytes; assay: Antimycotic activity in vitro (series dilution test), Trichophyton mentagrophytes; format: cell-based; conditions: nutrient medium, 28° C, 24 to 96 hours, read-out: Minimum inhibitory concentration (MIC), Trichophyton mentagrophytes
# [4] = system: Trichophyton quinckeanum; assay: Oral administration against Quinckeanum trichophytosis in white mice; format: in vivo; conditions: 100 mg/kg orally twice daily up to the eighth day of the infection
# Procedure: b. Oral administration against Quinckeanum trichophytosis in white mice By using doses of 100 mg/kg of body weight, administered orally twice daily up to the eighth day of the infection, it was possible to suppress the development of the Quinckeanum infection in mice.
# [5] = system: Trichophyton mentagrophytes; assay: Topical application against trichophytosis in guinea pigs; format: in vivo; conditions: 1% strength solution applied locally for 11 to 14 days
# Description: a. Topical application against trichophytosis in guinea pigs.
# A 1% strength solution of the active compounds in a dimethylsulphoxide/glycerol/water mixture (1:3:6) or in polyethylene glycol 400 was applied locally for 11 to 14 days after the trichophytosis (pathogen: Trichophyton mentagrophytes) had been produced experimentally.
# [6] = system: Aspergillus niger; assay: Antimycotic activity in vitro (series dilution test), Aspergillus niger; format: cell-based; conditions: nutrient medium, 28° C, 24 to 96 hours, read-out: Minimum inhibitory concentration (MIC), Aspergillus niger
Structure (SMILES),MIC [1] [µg/mL],MIC [2] [µg/mL],MIC [3] [µg/mL],MIC [6] [µg/mL],Action against Trichophyton quinckeanum [4],"Action (topical, trichophytosis in guinea pigs) [5]"
CC(C)(C)C(O)C(Cn1ccnc1)Oc1cccc(Cl)c1 (stereo not shown) [Example 4],64,> 64,> 64,,,
CC(C)(C)C(O)C(Cn1ccnc1)Oc1ccccc1Cl (stereo not shown) [Example 3],64,> 64,32,,,
"CC(C)(C)C(O)C(Cn1ccnc1)Oc1ccc(Cl)cc1 (stereo not shown) [Example 1, 1-(imidazol-1-yl)-2-(4-chlorophenoxy)-3-hydroxy-4,4-dimethyl-pentane]",64,> 64,32,,,
CC(C)(C)C(O)C(Cn1ccnc1)Oc1ccc(Cl)cc1Cl (stereo not shown) [Example 5],64,> 64,4,64,,
"CC(C)(C)C(O)(Cc1ccccc1)C(Cn1ccnc1)Oc1ccc(Cl)cc1 (stereo not shown) [Example 2, 1-(imidazol-1-yl)-2-(4-chlorophenoxy)-3-benzyl-3-hydroxy-4,4-dimethyl-pentane]",64,> 64,< 1,> 64,,

# More lines, main results first:
MIC [1] [µg/mL],MIC [2] [µg/mL],MIC [3] [µg/mL],MIC [6] [µg/mL],Structure (SMILES),Action against Trichophyton quinckeanum [4],"Action (topical, trichophytosis in guinea pigs) [5]"
64,> 64,4,> 64,Cc1cc(Cl)ccc1OC(Cn1ccnc1)C(O)C(C)(C)C (stereo not shown) [Example 7],xx (fewer than 30% of the animals showed symptoms of the infection.),xx (healing of the infection inside 4-6 days after infection.)
64,> 64,8,,CC(C)(C)C(C)(O)C(Cn1ccnc1)Oc1ccc(Cl)cc1 (stereo not shown) [Example 9],xx (fewer than 30% of the animals showed symptoms of the infection.),xx (healing of the infection inside 4-6 days after infection.)
64,> 64,32,,CC(C)(C)C(O)C(Cn1ccnc1)Oc1ccccc1 (stereo not shown) [Example 8],,
64,> 64,64,,CC(C)(C)C(O)C(Cn1ccnc1)Oc1ccc(F)cc1 (stereo not shown) [Example 6],,
